Legend:
[1] = system: C57BL/6J mice; assay: Head-twitch response (HTR) in mice; format: in vivo, mouse; conditions: 10 mg/kg ip, male C57BL/6J mice, 40 min post-dose; FIGS. 2 and 3
Experimental: Head-Twitch Response (HTR). The head-twitch response assay is performed as is known to those of skill in the art using both male and female C57BL/6J mice (3 per treatment). The mice are obtained and are approximately 8 weeks old at the time of the experiments. Compounds are administered via intraperitoneal injection (5 mL/kg) using 0.9% saline as the vehicle. As a positive control, 5-MeO-DMT fumarate (2:1 amine/acid) was utilized. Behavior was videotaped, later scored by two blinded observers, and the results were averaged (Pearson correlation coefficient=0.93).
24 Male C57BL/6J mice (approximately 25 g) were group housed in a stock room. Animals were maintained under a 12 h light/dark cycle, at 23° C. with humidity controlled according to Home Office regulations.
Compounds 1, 2, 4, 151, 93, AAZ literature compound and 5-MeO-DMT (all compounds supplied as free bases) were each formulated in DMSO:saline [10:90] at a concentration of 2 mg/mL to give a dose of 10 mg/kg when administered ip in a 5 mL/kg dosing volume. […]
At T=0 h, groups of 3 mice were dosed intraperitoneally with either Vehicle, Compound 1, Compound 2, Compound 4, Compound 151, Compound 93, AAZ literature compound, or 5-MeO-DMT each at 10 mg/kg. Following dosing, mice were replaced into the observation cages and head twitch behavior was monitored for 40 min after agonist dosing.

[2] = system: 5HT2A sensor; conditions: general statement on known hallucinogens and non-hallucinogenic congeners; cited from earlier work
[3] = biological target: T1, 5-HT2A receptor (Homo sapiens, UniProt P28223); assay: Calcium mobilization assay, antagonist format, 5-HT2A; format: cell-based; conditions: @100 nM; agonist challenge at EC80
T1 construct: host or cells: unnamed cell lines
T1 sequence (P28223 whole entry): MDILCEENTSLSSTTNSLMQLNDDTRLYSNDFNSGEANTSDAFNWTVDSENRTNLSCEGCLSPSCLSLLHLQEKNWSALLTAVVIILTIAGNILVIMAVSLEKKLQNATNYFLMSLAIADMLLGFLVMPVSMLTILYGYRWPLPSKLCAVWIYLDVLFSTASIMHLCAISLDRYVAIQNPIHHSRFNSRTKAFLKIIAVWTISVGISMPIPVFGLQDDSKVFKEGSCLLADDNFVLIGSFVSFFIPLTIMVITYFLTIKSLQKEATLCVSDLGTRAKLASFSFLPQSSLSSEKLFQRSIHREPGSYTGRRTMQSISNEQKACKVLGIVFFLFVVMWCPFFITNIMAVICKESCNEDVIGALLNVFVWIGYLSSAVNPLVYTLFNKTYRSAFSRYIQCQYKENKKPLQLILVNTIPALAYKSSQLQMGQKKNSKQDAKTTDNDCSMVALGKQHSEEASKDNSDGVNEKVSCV
Experimental: (§1) Protocol—in vitro testing at select 5-hydroxytryptamine (5-HT; serotonin) receptors was conducted.
(§2) • 1. Cell lines were expanded from freezer stocks according to standard procedures. • 2. Cells were seeded in a total volume of 20 μL into black-walled, clear-bottom, Poly-D-lysine coated 384-well microplates and incubated at 37° C. for the appropriate time prior to testing.
(§3) • 1. Assays were performed in 1× Dye Loading Buffer consisting of 1× Dye, 1× Additive A and • 2.5 mM Probenecid in HBSS/20 mM Hepes. Probenicid was prepared fresh. • 2. Cells were loaded with dye prior to testing. Media was aspirated from cells and replaced with 20 μL Dye Loading Buffer. • 3. Cells were incubated for 30-60 minutes at 37° C.
(§4) • 1. For antagonist determination, cells were pre-incubated with sample followed by agonist challenge at the EC80 concentration. • 2. Intermediate dilution of sample stocks was performed to generate 3× sample in assay buffer. • 3. After dye loading, cells were removed from the incubator and 10 μL 3× sample was added. Cells were incubated for 30 minutes at room temperature in the dark to equilibrate plate temperature. Vehicle concentration was 1%. • 4. Compound antagonist activity was measured on a FLIPR Tetra (MDS). Calcium mobilization was monitored for 2 minutes and 10 μL EC80 agonist in HBSS/20 mM Hepes was added to the cells 5 seconds into the assay.
(§5) • 1. Compound activity was analyzed using CBIS data analysis suite (ChemInnovation, CA). • 2. For agonist mode assays, percentage activity is calculated using the following formula: % Activity=100%×(mean RFU of test sample−mean RFU of vehicle control)/(mean MAX RFU control ligand −mean RFU of vehicle control). • 3. For positive allosteric mode assays, percentage modulation was calculated using the following formula: % Modulation=100%×((mean RFU of test sample−mean RFU of EC20 control)/(mean RFU of MAX control ligand −mean RFU of EC20 control)). • 4. For antagonist and negative allosteric modulation mode assays, percentage inhibition is calculated using the following formula: % Inhibition=100%×(1−(mean RFU of test sample−mean RFU of vehicle control)/(mean RFU of EC80 control−mean RFU of vehicle control)).
Compounds were evaluated as 5-HT2A antagonists at 100 nM (one hundred nanomolar), or may be evaluated at a higher concentration. For research comparative purposes, a literature compound—(R)-1-(5-methoxy-1H-indol-1-yl)-N,N-dimethylpropan-2-amine (AAZ-A-154) (Cell 2021, 184, 2779-2792.e18)—was included in the screening assays. Additionally, 5-hydroxytryptamine/serotonin (5-HT) was included in the screening assay as a positive control agonist, and Altanserin HCl was included as a 5-HT2A antagonist positive control.

[4] = biological target: T2, 5-HT2B receptor (Homo sapiens, UniProt P41595); assay: Calcium mobilization assay, agonist format, 5-HT2B; format: cell-based; conditions: % activity relative to control ligand, read-out: 5-HT2B agonist efficacy @5 µM
T2 construct: host or cells: unnamed cell lines
T2 sequence (P41595 whole entry): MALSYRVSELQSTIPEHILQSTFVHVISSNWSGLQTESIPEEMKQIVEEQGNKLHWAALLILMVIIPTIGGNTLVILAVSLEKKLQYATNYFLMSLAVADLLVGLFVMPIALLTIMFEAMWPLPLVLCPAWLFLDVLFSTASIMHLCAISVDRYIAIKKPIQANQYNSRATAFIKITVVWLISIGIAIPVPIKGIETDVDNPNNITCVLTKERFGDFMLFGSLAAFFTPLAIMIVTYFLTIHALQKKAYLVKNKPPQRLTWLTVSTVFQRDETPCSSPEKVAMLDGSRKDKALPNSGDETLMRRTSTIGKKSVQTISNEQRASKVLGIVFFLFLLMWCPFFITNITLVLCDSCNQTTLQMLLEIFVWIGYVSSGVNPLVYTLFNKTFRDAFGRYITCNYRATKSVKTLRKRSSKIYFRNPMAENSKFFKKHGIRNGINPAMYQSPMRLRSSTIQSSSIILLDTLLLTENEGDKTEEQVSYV
Experimental: as §1, §2, §3
(§6) • 1. For agonist determination, cells were incubated with sample to induce response. • 2. After dye loading, cells were removed from the incubator and 10 μL HBSS/20 mM Hepes was added. 3× vehicle was included in the buffer when performing agonist dose curves to define the EC80 for subsequent antagonist assays. Cells were incubated for 30 minutes at room temperature in the dark to equilibrate plate temperature. • 3. Intermediate dilution of sample stocks was performed to generate 4× sample in assay buffer. • 4. Compound agonist activity was measured on a FLIPR Tetra (MDS). Calcium mobilization was monitored for 2 minutes and 10 μL 4× sample in HBSS/20 mM Hepes was added to the cells 5 seconds into the assay.
as §5

[5] = biological target: T3, 5-HT2C receptor (Homo sapiens, UniProt P28335); assay: Calcium mobilization assay, antagonist format, 5-HT2C; format: cell-based; conditions: @10 µM; agonist challenge at EC80
T3 construct: host or cells: unnamed cell lines
T3 sequence (P28335 33-458): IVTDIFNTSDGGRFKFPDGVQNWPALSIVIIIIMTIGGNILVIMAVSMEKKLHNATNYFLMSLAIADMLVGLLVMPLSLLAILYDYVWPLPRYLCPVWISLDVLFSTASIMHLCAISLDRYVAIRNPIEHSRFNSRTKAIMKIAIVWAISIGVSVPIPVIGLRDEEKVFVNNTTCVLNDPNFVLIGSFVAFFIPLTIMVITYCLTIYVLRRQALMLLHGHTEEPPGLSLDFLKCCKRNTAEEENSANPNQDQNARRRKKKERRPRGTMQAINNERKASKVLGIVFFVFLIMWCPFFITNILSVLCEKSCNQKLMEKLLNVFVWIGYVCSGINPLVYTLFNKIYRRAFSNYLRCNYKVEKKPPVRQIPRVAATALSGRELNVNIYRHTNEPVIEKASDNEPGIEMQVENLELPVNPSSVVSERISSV
Experimental: as §1, §2, §3, §4, §5
[…] For research comparative purposes, a literature compound—(R)-1-(5-methoxy-1H-indol-1-yl)-N,N-dimethylpropan-2-amine (AAZ-A-154) (Cell 2021, 184, 2779-2792.e18)—was included in the screening assays. Additionally, 5-hydroxytryptamine/serotonin (5-HT) was included in the screening assay as a positive control agonist, and SB242084 was used in the screening assay as a literature 5-HT2C antagonist positive control. […] Compounds 2, 3 and 93 each achieved greater than 75% antagonism of the 5-HT2C receptor, with compounds 3 and 93 achieving approximately 98% and 97% antagonism, respectively.

[6] = biological target: T1, 5-HT2A receptor; assay: Calcium mobilization assay, agonist format, 5-HT2A; format: cell-based; conditions: % activity relative to control ligand, read-out: 5-HT2A agonist efficacy @10 µM
Experimental: as §1, §2, §3, §6, §5

[7] = Metabolic stability in human liver microsomes; format: in vitro ADME; conditions: for half-life at 1 μM / microsomal CLint at 1 μM / CLint scaled at 1 μM: liver microsomes (pooled); for half-life at 1 μM: human liver microsomes 0.5 mg/mL, test compound 1.0 μM, 37° C., NADPH; for microsomal CLint at 1 μM: intrinsic clearance = 0.693/T1/2/mg microsome protein per mL, read-out: CLint(mic); for CLint scaled at 1 μM: human, scaled from CLint(mic) with 45 mg microsomal protein/g liver and 20 g liver/kg
Experimental: The test compound at 1.0 μM in singlet, or positive controls including Testosterone (CYP3A4 substrate), Propafenone (CYP2D6 substrate) or Diclofenac (CYP2C9 substrate) was incubated with the liver microsomes (Corning, Xenotech, or other credible vendor, pooled from multiple donors) at 0.5 mg/mL, respectively. The mixture was warmed up at 37° C. for 10 minutes and the reactions were initiated by the addition of a NADPH regenerating system (˜1.0 mM). The test compound incubated with the liver microsomes at 37° C. without the NADPH regenerating system served as the negative control reaction.
The reaction samples were removed at multiple time points (such as 0, 5, 15, 30, 45 and 60 minutes) and the sample without NADPH (NCF) was removed at 60 minutes. All the samples were immediately mixed with cold acetonitrile containing internal standard (IS) to stop the reaction.
Samples were analyzed by LC/MS/MS and the disappearance of test compound were assessed base on peak area ratios of analyte/IS (no standard curve). The microsomal intrinsic clearance and T1/2 values were calculated using the following equation: […]
The microsomal intrinsic clearance and T1/2 values were calculated using the following equation: […]
In these experiments the comparator compound was a suitable reference standard. In one embodiment the comparator compound was (R)-1-(5-methoxy-1H-indol-1-yl)-N,N-dimethylpropan-2-amine.

SMILES	head-twitch response compared to placebo [1]	activation of the 5HT2A sensor assay in agonist mode [2]	inhibition at 0.1 µM [3]	activation at 5 µM [4]	inhibition at 10 µM [5]	activation at 10 µM [6]	half-life at 1 μM [7]	microsomal CLint at 1 μM ([7]; human liver microsomes)	CLint scaled at 1 μM [7]	difference in half-life and intrinsic clearance compared with reference compound (R)-1-(5-methoxy-1H-indol-1-yl)-N,N-dimethylpropan-2-amine ([7]; human liver microsomes, comment on Table 2)
COc1ccc2[nH]cc(CCN(C)C)c2c1 [Compound 5-MeO-DMT]	produced significant increases in head-twitch	activate the 5HT2A sensor assay in agonist mode	–	–	–	–	–	–	–	–
C[C@H](Cn1ccc2cc(OC3CC3)ccc21)N(C)C [Compound 1, (R)-1-(5-cyclopropoxy-1H-indol-1-yl)-N,N-dimethylpropan-2-amine]	–	–	-13.2%	-0.7%	20.7%	-1.4%	–	–	–	–
COc1ccc2c(ccn2C[C@@H](C)N(C)C)c1 [AAZ-A-154, (R)-1-(5-methoxy-1H-indol-1-yl)-N,N-dimethylpropan-2-amine, reference compound]	–	–	3.2%	-2.9%	35%	1%	1.42 h	16.4 µL/min/mg	14.8 mL/min/kg	–
[2H]C([2H])([2H])[C@@]([2H])(N(C)C)C([2H])([2H])n1ccc2cc(OC)ccc21 [Compound 5, (2R)-1,1,1,2,3,3-hexadeuterio-3-(5-methoxyindol-1-yl)-N,N-dimethyl-propan-2-amine]	–	–	-2.7%	3%	38.1%	2%	1.59 h	15 µL/min/mg	13.5 mL/min/kg	significant and beneficial differences in half-life and intrinsic clearance
